Experimental data: US11617715B2, “Methods and compositions for modifying the behavior of animals” (Texas Tech University System, priority 2016, dated 2023)

Test system: dog barking and jumping
Test: Teaser dog kennel test of dog barking and jumping
Type: in vivo
Conditions: kennel dogs with teaser dog; for effectiveness in reducing barking and jumping (Quinoline compared to Androstenone): Study 3
Experimental: The efficacy of Quinoline was tested in three studies conducted to determine if Quinoline would reduce dog barking and jumping. The composition used in the experiments comprised approximately 4 micrograms per milliliter of Quinoline.
The basic parameters of the test involved walking a teaser dog in the center aisle of a dog kennel with test dogs on either side in kennels. The kennels were chain-linked fence with concrete floors. The researchers walked a teaser dog down the aisle and recorded dogs jumping and barking over a two minute period.
In the first study, three treatments were evaluated. Treatment 1 represented no treatment of any kind. The teaser animal simply stood at the test subjects' kennel.
Treatment 2 represented a control treatment. In this case, the delivery vehicle (isopropyl alcohol) spray was administered without Quinoline.
In treatment 3, Quinoline was administered to the test subject animals.
In study 2, the efficacy of Quinoline alone was tested. Test 2 was conducted a week after test 1. The same procedure was used in study 2 except that the test animals were only subject to the delivery of Quinoline.
In study 3, Quinoline was compared to Androstenone (the compound described in U.S. Pat. No. 9,044,395). Again, the same procedures were used in study 3; the test animals were subject to Quinoline and Androstenone.

[1] = Study 1, treatment 3, Quinoline approximately 4 micrograms per milliliter, spray
[2] = Study 2, Quinoline alone, a week after study 1

SMILES | effectiveness in reducing barking and jumping (Quinoline compared to Androstenone) | reduced barking [1] [%] | reduced jumping [1] [%] | reduced barking [2] [%] | reduced jumping [2] [%]
C[C@]12CCC(=O)C[C@@H]1CC[C@@H]1[C@@H]2CC[C@]2(C)C=CC[C@@H]12 [Androstenone, reference compound] | approximately equivalently effective |  |  |  | 
c1ccc2ncccc2c1 [Quinoline] | approximately equivalently effective | 80 | 90 | 100 | 90
